Assay results published in patent US20180228897A1, “Compositions for Vapor Phase Delivery of Active Compounds, Methods of Making and Using Same, and Kits Comprising Same” (Atmovita, LLC, priority 2015, published 2018).
Values after ≈ are worked out from the molar mass of the structure shown.

Experiments:
Assay type in all cases: physicochemical
[1] = Solubility of piracetam and pantothenic acid in stock; conditions: glycerin/2,3 butane diol stock, organic solvent or mixture
[2] = Preparation of compositions (Example 3): appearance and stability of the solution; conditions: heated at 175° C.
[3] = Increase in solubility of active compounds in the present compositions
Excerpt: It is advantageous to take measures to increase the solubility of an active compound or active compounds within a composition that includes components that serve as excipients such that true solubilization of the compound(s) occurs and the activity of the active compounds are retained upon transition to the vapor phase. The present disclosure is based on the result that the solubility of active compounds can be increased by surprising and unexpected amounts.

[4] = Folate solubility in glycerin/2,3 butane diol stock compositions with co-solutes (incremental addition, heat gun, stirring)
Experimental: Folate. Folate and biotin are the two most difficult to dissolve B vitamins. Folate solubility enhancement was provided by addition of beta-cyclodextrin.
The solubility enhancement from mannitol/biotin alone was tested next. […] This is major improvement over most polar solvents (0.0016 g/L of water at 25° C.).
First the mannitol/biotin powder was mixed with 0.004 g of folate. This was added to the test tube followed by the liquid. It was stirred vigorously. Then it was heated with a heat gun until clear and no folate was suspended. […] All the liquid was moved to another test tube and the precipitate remained. Then folate was incrementally added (about 1 mg) and the solution was stirred, followed by heating** until it became clear. It would take at least 3 minutes of heating for it to become clear but as more folate was added, at least 4 minutes of heating were needed. This is how the original solution was formed. Over the course of several days there was no further precipitate or increase in viscosity. ** all heating was done with the yellow heat gun on the lowest setting (240° F.)
While heating and stirring the lid popped off and 0.75 ml of solution spilled out. Even accounting for folate lost in the spill, currently at least 8 mg of folate have been dissolved in 2.75 ml and the solution is completely clear. Heating the solution caused the lid to pop so it must be removed after about 1 minute and 30 seconds of heating prior to any further heating. It is also crucial for the solution to have been flipped upside down, preferably while warm. The solution must not be heated while flipped as this may cause a spill.
The original solution still has less much viscosity but also a slightly lower concentration of folate. It appears that somewhere beyond 8 mg folate/[…] of solution it becomes supersaturated, resulting in a thick gel upon settling and cooling. […] As long as supersaturation followed by settling is avoided, the solution will remain liquid. Another option is to study the effect of precipitation inhibitors or the sonicator to further boost solubility without increasing viscosity.
Testing was also done with only stock, stock+water and stock+ethanol but having both water and ethanol is crucial to the process. […] Despite having separated the liquid from the precipitate which was nearly all biotin/mannitol, the powder still played a role in improving folate solubility. […] The following composition (3 ml stock+0.25 ml water+0.25 ml ethanol+0.009 g of biotin) dissolved 11.2 mg of folate but became extremely viscous.
According to research on drug solubility there is a class of molecules known as hydrotropes (also known as chaotropes, […]). They reduce hydrophobic forces between non-polar solutes in polar solvents. One such molecule is niacinamide (vitamin B3 amide). These hydrotropes are planar and are either very polar or have nonpolar and polar sides like surfactants but shorter. This experiment was repeated with niacinamide as a cosolute and with a combination of B3 amide and Biotin. The biotin and B3 amide were added along with 4 mg of folate (and crushed together) wet into dry to the solution. The remaining folate was added incrementally along with heating and stirring. […] (2.5 ml stock+0.5 ml water+0.5 ml ethanol+0.0221 g of B3 amide) dissolved approximately 11 mg of folate and a small amount of precipitate. (2.5 ml stock+0.5 ml water+0.5 ml ethanol+0.0221 g of B3 amide+0.090 g pure biotin) dissolved approximately 11.4 mg of folate without precipitate. Unfortunately both solutions were extremely viscous after a few days.
Eventually the B3 amide and biotin cosolute solution was prepared using “reverse stock” instead of regular with the goal of lowering viscosity. The reverse stock is a solution of 3:7 mol glycerin and 2,3 butane diol. Initially this made folate precipitate so additional glycerin was added to achieve a 1:1 mol ratio of glycerin to 2,3 butane diol.

[5] = Trans resveratrol solubility in stock with solvents and co-solutes (incremental addition, heat gun); conditions: solution 2 (3.5 ml pure carvone) and solution 4 (3 ml carvone+0.5 ml ethanol), without heating
Experimental: The initial approach was to test non polar solvents and their effectiveness with ethanol. This included pure stock as a control, carvone, and combinations of those solvents with ethanol. The following solvents were prepared: Control—3.5 ml of pure stock, 1-1.75 ml of stock+1.75 ml of carvone+0.2 ml of 0.01 mol NaOH, 2-3.5 ml of pure carvone, 3-3 ml of stock+0.5 ml of ethanol, 4-3 ml of carvone+0.5 ml of ethanol.
Solution 1 became biphasic and cloudy. The control and solution 4 have approximately the same solubility of TR. […] Solvent was added until the TR was dissolved which occurred at 60 mg/ml of stock. This original solution was split into 5 test tubes of 1 ml each with about 0.06 g of TR.
The following solutions were made: 1—adding […] of carvone (equimolar with TR, 0.000263 mol of each) 2—adding 0.175 ml of ethanol 3-0.235 ml of carvone and 0.1 ml of ethanol. Solution 1 became cloudy because the carvone is immiscible with the stock. Several attempts to fix this were made using of ethanol and B3 amide as hydrotropes but it had no effect.
Next co-solutes were used along with the TR in stock solution. 0.000263 mol of the following were dissolved along with TR in 3 ml stock: 1-niacin, 2-caffeine, 3-gallic acid, 4-salicylic acid, 5-thiamine, 6-niacinamide, and 7-pantothenic acid. Two additional samples were prepared of 0.01 g biotin (8) and 0.04 g of -pyridoxine HCl (9). Each solution consisted of the stated amount of co-solute and 3 ml of stock. The following amounts of TR (which was added incrementally (30-40 mg) and heated for 3-4 minutes by heat gun) created the following:
To conduct further testing 0.5 ml of ethanol was added to the solutions with niacin, biotin, thiamine, and salicylic acid. The successful B3 amide solution was split into two solutions of (1.625 and 1.375 ml) with 0.25 ml of ethanol being added to the 1.375 ml solution. The results were as follows:
There was also testing with multiple solutes in 3 ml of stock:
Currently piperazine hexahydrate is being tested as it is another hydrotrope. […] It may work better with other co-solutes or ethanol.

[6] = Folate solubility in glycerin/2,3 butane diol stock compositions with co-solutes (incremental addition, heat gun, stirring); conditions: 2.5 ml stock+0.15 ml water+0.15 ml ethanol+0.01135 g beta-cyclodextrin+0.0182 g biotin/mannitol+0.00441 folate, without heating

| SMILES | solubility [1] [mg/mL] | appearance of composition ([2]; 0.2 grams piracetam in 1.5 ml stock, 2.0 ml fruit flavored vodka, 0.1 ml flavored glycerin) | increase in solubility [3] | amount of folate dissolved ([4]; 0.0221 g B3 amide, 0.0047 mg biotin, 3.5 ml equimolar glycerin and 2,3 butane diol, 0.5 ml water, 0.5 ml ethanol) [mg] | amount of folate dissolved ([4]; 2.5 ml stock+0.5 ml water+0.5 ml ethanol+0.0221 g B3 amide+0.090 g pure biotin, without precipitate) | amount of folate dissolved ([4]; 2.5 ml stock+0.5 ml water+0.5 ml ethanol+0.0221 g B3 amide, small amount of precipitate) | amount of folate dissolved ([4]; 3 ml stock+0.25 ml water+0.25 ml ethanol+0.009 g biotin) [mg] | amount of folate dissolved ([4]; 3 ml stock+0.25 ml water+0.25 ml ethanol+0.0182 g biotin/mannitol) | amount of folate dissolved ([4]; liquid only part of the same solution, no mannitol/biotin powder) [mg] | amount of folate dissolved ([4]; repeat experiment, in 2.75 ml of the biotin/mannitol solution, completely clear) | concentration beyond which solution becomes supersaturated (thick gel on settling and cooling) ([4]; stock+water+ethanol+biotin/mannitol solution) | dissolution in carvone solvents [5] | appearance of composition ([2]; 8 mg folic acid, 22.1 mg nicotinamide, 4.7 mg biotin in 3.5 ml (0.5 mol glycerin/0.5 mol propylene glycol), 0.5 ml water, 0.5 ml ethanol, flavors) | appearance of solution [6] |
| --- | --- | --- | --- | --- | --- | --- | --- | --- | --- | --- | --- | --- | --- | --- |
| NC(=O)CN1CCCC1=O [Piracetam, piracetam] | 36.5 (≈ 257 mM) | clear solution with flavor | – | – | – | – | – | – | – | – | – | – | – | – |
| Nc1nc2ncc(CNc3ccc(C(=O)N[C@@H](CCC(=O)O)C(=O)O)cc3)nc2c(=O)[nH]1 [folate, folic acid] | – | – | ≤ 15,000% | 9 | approximately 11.4 mg | approximately 11 mg | 11.2 | approximately 0.008 g | < 1.6 | at least 8 mg | > 8 mg folate/3.5 ml of solution | easily dissolved | clear solution with flavor | clear with some orange (folate) precipitate on the bottom of the vial |
